How the values were obtained:
PLC/PRF/5 = test: MTT assay, cell viability; assay type: cell-based; settings: 72 hours
Experimental: (§1) Cells were cultured in RPMI-1640 (RT-112, KMS-11, SNU-16, HT-29, HCT-116, NCI—H520, Hep3B, PLC/PRF/5, HL-60, MOLT-4) and DMEM (HepG2, MCF-7, MDA-MB-231) with 10% FBS (v/v) and Penicillin/Streptomycin (100 U/ml). FU-DDLS-1 cell line was maintained in DMEM:F12 medium with 10% FBS. LiSa-2 cell line was maintained in IMDM/RPMI-1640 in a 4:1 ratio supplemented with 10% FBS, 2 mmol/L L-glutamine, and 0.1 mg/mL gentamicin. Human umbilical vein endothelial cells (HUVECs) were grown to confluence on 1% collagen, and maintained in 90% Medium 199 with 25 U/ml heparin, 30 μg/ml endothelial cell growth supplement (ECGS) adjusted to contain 1.5 g/L sodium bicarbonate, 10% FBS and Penicillin/Streptomycin (100 U/ml) Cultures were maintained at 37° C. in a humidified atmosphere of 5% CO2/95% air.
(§2) Cells were seeded in 96-well plates (5,000 cells/well) and incubated overnight for attachment, and were then treated with indicated agents in 10% FBS-supplemented medium for 72 hours. The medium was replaced with MTT (0.5 mg/mL) at 37° C. for 1 hours. After removal of medium, the cells were lysed with 100 μL per well dimethyl sulfoxide (DMSO), and absorbance at 550 nm was measured with microplate reader. The relative cell viability (%) was expressed as a percentage relative to a DMSO control cells.

SNU-16 = test: MTT assay, cell viability; assay type: cell-based; settings: 72 hours
Experimental: as §1, §2

RT-112 = test: MTT assay, cell viability; assay type: cell-based; settings: 72 hours
Experimental: as §1, §2

Hep3B = test: MTT assay, cell viability; assay type: cell-based; settings: 72 hours
Experimental: as §1, §2

RT-112 cells = test: Cell cycle distribution by flow cytometry; assay type: cell-based; settings: FIG. 3A; for accumulation of the sub-G1 phase (apoptotic cell death): 48 h to 72 h
RT-112 tumor xenografts = settings: 5 mg/kg/wk, i.p., nude mice
Experimental: Eight-week-old female athymic nude mice were group-housed in the TMU Laboratory Animal Center (Taipei, Taiwan) under conditions of constant photoperiod (12 h light/12 h dark at 21-0023° C. and 60-85% humidity) with ad libitum access to sterilized food and water. […] Tumors were measured weekly using calipers. Tumor volume (mm3) was calculated from w2×½ (w=width, 1=length in mm of the tumor).

HepG2 = test: MTT assay, cell viability; assay type: cell-based; settings: Homo sapiens; HepG2, Liver, 72 hours; read-out: IC50 (μM, Mean ± SD)
Experimental: as §1, §2

KMS-11 = test: MTT assay, cell viability; assay type: cell-based; settings: Homo sapiens; KMS-11, Myeloma, 72 hours; read-out: IC50 (μM, Mean ± SD)
Experimental: as §1, §2

HT-29 = test: MTT assay, cell viability; assay type: cell-based; settings: Homo sapiens; HT-29, Colorectal, 72 hours; read-out: IC50 (μM, Mean ± SD)
Experimental: as §1, §2

MCF-7 = test: MTT assay, cell viability; assay type: cell-based; settings: Homo sapiens, MCF7; MCF-7, Breast, 72 hours; read-out: IC50 (μM, Mean ± SD)
Experimental: as §1, §2

HCT-116 = test: MTT assay, cell viability; assay type: cell-based; settings: Homo sapiens; HCT-116, Colorectal, 72 hours; read-out: IC50 (μM, Mean ± SD)
Experimental: as §1, §2

LISA-2 = test: MTT assay, cell viability; assay type: cell-based; settings: LISA-2, Sarcoma, 72 hours; read-out: IC50 (μM, Mean ± SD)
Experimental: as §1, §2

FUDDLS = test: MTT assay, cell viability; assay type: cell-based; settings: Sarcoma, 72 hours, read-out: IC50 (μM, Mean ± SD)
Experimental: as §1, §2

MDA-MB-231 = test: MTT assay, cell viability; assay type: cell-based; settings: Homo sapiens; MDA-MB-231, Breast, 72 hours; read-out: IC50 (μM, Mean ± SD)
Experimental: as §1, §2

| SMILES | Viability (% of control cells) PLC5 (5 uM) Mean (PLC/PRF/5) | Viability (% of control cells) SNU-16 (5 uM) Mean (SNU-16) | Viability (% of control cells) RT-112 (5 uM) Mean (RT-112) | Viability (% of control cells) RT-112 (10 uM) Mean (RT-112) | Viability (% of control cells) Hep3B (5 uM) Mean (Hep3B) | also measured |
| --- | --- | --- | --- | --- | --- | --- |
| CCN1CCN(c2ccc(-c3cc(N(C)C(=O)Nc4c(Cl)c(OC)c(Cl)c(OC)c4Cl)ncn3)cc2)CC1 [MPT0L182, 1-(6-(4-(4-ethylpiperazin-1-yl)phenyl)pyrimidin-4-yl)-1-methyl-3-(2,4,6-trichloro-3,5-dimethoxyphenyl)urea] | 78.3 % of control cells | 63.2 % of control cells | 95.6 % of control cells | 8.6 % of control cells | 96.3 % of control cells | – |
| COc1c(Cl)c(NC(=O)N(C)c2cc(-c3cccc([N+](=O)[O-])c3)ncn2)c(Cl)c(OC)c1Cl [MPT0L151, 1-methyl-1-(6-(3-nitrophenyl)pyrimidin-4-yl)-3-(2,4,6-trichloro-3,5-dimethoxyphenyl)urea] | – | – | – | 63.8 % of control cells | – | – |
| CCN1CCN(c2ccc(Nc3cc(N(C)C(=O)Nc4c(Cl)c(OC)c(Cl)c(OC)c4Cl)ncn3)cc2)CC1 [MPT0L090, 1-(6-((4-(4-ethylpiperazin-1-yl)phenyl)amino)pyrimidin-4-yl)-1-methyl-3-(2,4,6-trichloro-3,5-dimethoxyphenyl)urea] | 72.6 % of control cells | 27.5 % of control cells | 52.6 % of control cells | 12.7 % of control cells | 47.1 % of control cells | – |
| COc1c(Cl)c(NC(=O)N(C)c2cc(-c3ccc(Cl)cc3)ncn2)c(Cl)c(OC)c1Cl [MPT0L156, 1-(6-(4-chlorophenyl)pyrimidin-4-yl)-1-methyl-3-(2,4,6-trichloro-3,5-dimethoxyphenyl)urea] | 44.4 % of control cells | 76.7 % of control cells | 98.3 % of control cells | 34.8 % of control cells | 54.3 % of control cells | – |
| CCN1CCN(c2ccc(Nc3nc(Cl)nc(N(C)C(=O)Nc4c(Cl)c(OC)c(Cl)c(OC)c4Cl)n3)cc2)CC1 [MPT0L183, 1-(4-chloro-6-((4-(4-ethylpiperazin-1-yl)phenyl)amino)-1,3,5-triazin-2-yl)-1-methyl-3-(2,4,6-trichloro-3,5-dimethoxyphenyl)urea] | 45.0 % of control cells | 28.2 % of control cells | 15.8 % of control cells | 3.4 % of control cells | 43.3 % of control cells | – |
| COc1c(Cl)c(NC(=O)N(C)c2cc(-c3cccc(C#N)c3)ncn2)c(Cl)c(OC)c1Cl [MPT0L150, 1-(6-(3-cyanophenyl)pyrimidin-4-yl)-1-methyl-3-(2,4,6-trichloro-3,5-dimethoxyphenyl)urea] | – | – | – | 75.0 % of control cells | – | – |
| COc1ccc(-c2cc(N(C)C(=O)Nc3c(Cl)c(OC)c(Cl)c(OC)c3Cl)ncn2)cc1 [MPT0L153, 1-(6-(4-methoxyphenyl)pyrimidin-4-yl)-1-methyl-3-(2,4,6-trichloro-3,5-dimethoxyphenyl)urea] | 91.3 % of control cells | 76.2 % of control cells | 63.8 % of control cells | 43.0 % of control cells | 93.6 % of control cells | – |
| CC(=O)O[C@H]1C(=O)[C@@]2(C)[C@H]([C@H](OC(=O)c3ccccc3)[C@]3(O)C[C@H](OC(=O)[C@H](O)[C@@H](NC(=O)c4ccccc4)c4ccccc4)C(C)=C1C3(C)C)[C@]1(OC(C)=O)CO[C@@H]1C[C@@H]2O [paclitaxel] | – | – | – | – | – | accumulation of the sub-G1 phase (apoptotic cell death) (RT-112 cells): induced pronounced apoptosis |
| N.N.[Cl][Pt][Cl] [Cisplatin, reference compound] | – | – | – | – | – | Tumor growth inhibition (%) (RT-112 tumor xenografts): 56.3% |
| COc1c(Cl)c(NC(=O)N(C)c2cc(-c3ccco3)ncn2)c(Cl)c(OC)c1Cl [MPT0L154, 1-(6-(furan-2-yl)pyrimidin-4-yl)-1-methyl-3-(2,4,6-trichloro-3,5-dimethoxyphenyl)urea] | – | – | – | 76.1 % of control cells | – | – |
| COc1c(Cl)c(NC(=O)N(C)c2cc(-c3ccccc3)ncn2)c(Cl)c(OC)c1Cl [MPT0L149, 1-methyl-1-(6-phenylpyrimidin-4-yl)-3-(2,4,6-trichloro-3,5-dimethoxyphenyl)urea] | – | – | – | 82.3 % of control cells | – | – |
| COc1c(Cl)c(NC(=O)N(C)c2cc(-c3ccc(F)cc3)ncn2)c(Cl)c(OC)c1Cl [MPT0L155, 1-(6-(4-fluorophenyl)pyrimidin-4-yl)-1-methyl-3-(2,4,6-trichloro-3,5-dimethoxyphenyl)urea] | 55.3 % of control cells | 80.5 % of control cells | 92.6 % of control cells | 44.4 % of control cells | 72.8 % of control cells | – |
| CCN1CCN(c2ccc(Nc3cc(N(C)C(=O)Nc4c(Cl)c(OC)c(Cl)c(OC)c4Cl)nc(-c4ccccc4)n3)cc2)CC1 [MPT0L146, 1-(6-((4-(4-ethylpiperazin-1-yl)phenyl)amino)-2-phenylpyrimidin-4-yl)-1-methyl-3-(2,4,6-trichloro-3,5-dimethoxyphenyl)urea] | 88.0 % of control cells | 83.4 % of control cells | 100.8 % of control cells | 29.7 % of control cells | 94.3 % of control cells | – |
| COc1c(Cl)c(NC(=O)N(C)c2cc(-c3cccnc3)ncn2)c(Cl)c(OC)c1Cl [MPT0L147, 1-methyl-1-(6-(pyridin-3-yl)pyrimidin-4-yl)-3-(2,4,6-trichloro-3,5-dimethoxyphenyl)urea] | – | – | – | 85.0 % of control cells | – | – |
| COc1c(Cl)c(NC(=O)N(C)c2cc(-c3ccc(C#N)cc3)ncn2)c(Cl)c(OC)c1Cl [MPT0L152, 1-(6-(4-cyanophenyl)pyrimidin-4-yl)-1-methyl-3-(2,4,6-trichloro-3,5-dimethoxyphenyl)urea] | – | – | – | 55.3 % of control cells | – | – |
| COc1c(Cl)c(NC(=O)N(C)c2cc(-c3ccncc3)ncn2)c(Cl)c(OC)c1Cl [MPT0L148, 1-methyl-1-(6-(pyridin-4-yl)pyrimidin-4-yl)-3-(2,4,6-trichloro-3,5-dimethoxyphenyl)urea] | – | – | – | 89.3 % of control cells | – | – |
| CCN1CCN(c2ccc(Nc3cc(N(C)C(=O)Nc4c(Cl)c(OC)cc(OC)c4Cl)ncn3)cc2)CC1 [BGJ-398, 3-(2,6-Dichloro-3,5-dimethoxy-phenyl)-1-{6-[4-(4-ethylpiperazin-1-yl)-phenylamino]-pyrimidin-4-yl}-1-methyl-urea] | – | – | – | – | – | IC50 (PLC/PRF/5; Homo sapiens, PLC/PRF/5, Liver, read-out: IC50 (μM, Mean ± SD)): 2.94 ± 0.11 µM; IC50 (HepG2): 5.84 ± 0.25 µM; IC50 (KMS-11): 0.2 ± 0.05 µM; IC50 (HT-29): 4.77 ± 0.14 µM; IC50 (MCF-7): 5.07 ± 0.63 µM; IC50 (HCT-116): 3.98 ± 0.06 µM; IC50 (LISA-2): 6.13 ± 0.06 µM; IC50 (FUDDLS): 1.45 ± 0.17 µM; IC50 (RT-112; Homo sapiens, RT-112, Bladder, read-out: IC50 (μM, Mean ± SD)): 1.7 ± 0.05 µM; IC50 (Hep3B; Homo sapiens, Liver, read-out: IC50 (μM, Mean ± SD)): 0.72 ± 0.12 µM; IC50 (MDA-MB-231): 4.27 ± 0.83 µM; G0/G1 cell cycle arrest (RT-112 cells; 24 h): also observed; accumulation of the sub-G1 phase (apoptotic cell death) (RT-112 cells): induced pronounced apoptosis |

Source: patent US10624897B2, “Chlorobenzene substituted azaaryl compounds” (TAIPEI MEDICAL UNIVERSITY, priority 2015, dated 2020)
